Measurements from patent US5753617A, “Peptide inhibitors of cellular adhesion” (Centocor, Inc., priority 1995, dated 1998).
Where a SMILES comes first, the peptide text is derived from it. Bridges are numbered along the chain shown (N, C = ends). [ ]: non-standard residue; d: D form. dTic = O=C(O)[C@H]1Cc2ccccc2CN1; Dap = NC[C@H](N)C(=O)O

biological target: T1, P-selectin (Homo sapiens, UniProt P16109); test: Inhibition of human neutrophil adhesion to purified P-selectin immobilized on plastic wells; assay type: cell-based; settings: human neutrophils, purified human P-selectin
T1 construct: P-selectin is isolated from human platelet lysates; from tissue; host or cells: human platelets (outdated platelet packs from a blood bank)
T1 sequence (P16109 42-830): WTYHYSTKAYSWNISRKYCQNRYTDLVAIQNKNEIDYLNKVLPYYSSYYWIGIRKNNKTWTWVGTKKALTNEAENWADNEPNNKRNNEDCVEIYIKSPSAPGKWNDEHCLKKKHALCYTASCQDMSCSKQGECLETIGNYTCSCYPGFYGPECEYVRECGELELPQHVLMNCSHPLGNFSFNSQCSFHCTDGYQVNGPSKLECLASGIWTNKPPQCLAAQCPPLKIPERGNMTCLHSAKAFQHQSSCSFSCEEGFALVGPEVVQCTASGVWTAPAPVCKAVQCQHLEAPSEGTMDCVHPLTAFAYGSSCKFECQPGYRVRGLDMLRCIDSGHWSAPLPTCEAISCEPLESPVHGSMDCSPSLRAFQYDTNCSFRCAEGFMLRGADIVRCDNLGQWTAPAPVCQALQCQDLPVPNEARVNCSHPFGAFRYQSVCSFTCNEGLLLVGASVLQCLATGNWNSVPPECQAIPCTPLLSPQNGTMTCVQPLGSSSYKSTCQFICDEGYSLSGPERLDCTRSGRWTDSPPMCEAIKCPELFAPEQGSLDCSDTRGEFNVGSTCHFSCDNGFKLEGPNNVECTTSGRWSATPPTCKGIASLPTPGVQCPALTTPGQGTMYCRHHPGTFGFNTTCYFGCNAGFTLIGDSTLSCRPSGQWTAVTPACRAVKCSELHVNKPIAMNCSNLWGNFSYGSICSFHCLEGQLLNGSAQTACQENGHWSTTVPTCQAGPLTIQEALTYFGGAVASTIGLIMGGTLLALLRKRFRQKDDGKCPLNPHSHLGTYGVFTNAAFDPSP
Description: Peptides can be screened for their ability to inhibit adhesion to cells, for example, neutrophil adhesion to purified P-selectin immobilized on plastic wells, using the assay described by Geng, et al., Nature 343, 757-760 (1990). Human neutrophils are isolated from heparinized whole blood by density gradient centrifugation on Mono-Poly resolving media, Flow Laboratories. Neutrophil suspensions are greater than 98% pure and greater than 95% viable by trypan blue exclusion. For adhesion assays, neutrophils are suspended at a concentration of 2×10^6 cells/mL in Hanks' balanced salt solution containing 1.26 mM Ca^2+ and 0.81 mM Mg^2+ (HBSS, Gibco) with […] human serum albumin (HBSS/HSA). Adhesion assays are conducted in triplicate in 96-well microliter plates, Corning, incubated at 4° C. overnight with 50 microliters of various protein solutions. P-selectin is isolated from human platelet lysates by immunoaffinity chromatography on antibody S12-Sepharose™ and ion-exchange chromatography on a Mono-Q™ column (FLPC, Pharmacia Fine Chemicals), as follows. Outdated human platelet packs (100 units) obtained from a blood bank and stored at 4° C. are pooled, adjusted to 5 mM EDTA at pH 7.5, centrifuged at 4,000 rpm for 30 minutes in 1 liter bottles, then washed three times with 1 liter of 0.1M NaCl, 20 mM Tris pH 7.5 (TBS), 5 mM EDTA, 5 mM benzamidine. The pellets are then resuspended in a minimum amount of wash buffer and made 1 mM in DIFP, then frozen in 50 mL screwtop tubes at -80° C. The frozen platelets are thawed and resuspended in 50 mL TBS, 5 mM benzamidine, 5 mM EDTA pH 7.5, […]. The suspension is frozen and thawed two times in a dry ice-acetone bath using a 600 mL lyophilizing flask, then homogenized in a glass/teflon mortar and pestle and made 1 mM in DIFP. The NaCl concentration is adjusted to 0.5M with a stock solution of 4M NaCl. After stirring the suspension at 4° C., it is centrifuged in polycarbonate tubes at 33,000 rpm for 60 minutes at 4° C. The supernatant (0.5M NaCl wash) is removed and saved; this supernatant contains the soluble form of P-selectin. Care is taken not to remove the top part of the pellet with the supernatant. The pellets are then homogenized in extraction buffer (TBS, 5 mM benzamidine, 5 mM EDTA, pH 7.5, 100 μM leupeptin, 2% Triton X-100). After centrifugation at 19,500 rpm for 25 minutes at 4° C., the supernatant is removed. The extraction procedure is repeated with the pellet and the supernatant is combined with the first supernatant. The combined extracts, which contain the membrane form of P-selectin, are adjusted to 0.5M NaCl. The soluble fraction (0.5M NaCl wash) and the membrane extract (also adjusted to 0.5M NaCl) are absorbed with separate pools of the monoclonal antibody S12 (directed to P-selectin) previously couple […]) at 5 mg/mL for 2 hours at 4° C. After letting the resins settle, the supernatants are removed. The S12 Affigel containing bound GMP-140 is then loaded into a column and washed overnight at 4° C. with 400 mL of 0.5M NaCl, 20 mM Tris pH 7.5, 0.01% Lubrol PX. Bound P-selectin is eluted from the S12 Affigel with 100 mL of 80% ethylene glycol, 1 mM MES pH 6.0, 0.01% Lubrol PX. Peak fractions with absorbance at 280 nm are pooled. Eluates are dialyzed against TBS with 0.05% Lubrol, then applied to a Mono Q column (FPLC from Pharmacia). The concentrated protein is step eluted with 2M NaCl, 20 mM Tris pH 7.5 (plus 0.05% Lubrol PX for the membrane fraction). Peak fractions are dialyzed into TBS pH 7.5 (plus 0.05% Lubrol PX for the membrane fraction). P-selectin is plated at 5 micrograms/mL and the control proteins: human serum albumin (Alb), platelet glycoprotein IIb/IIIa (IIb), von Willebrand factor (vWF), fibrinogen (FIB), thrombomodulin (TM), gelatin (GEL) or human serum (HS), are added at 50 micrograms/mL. […]

biological activity / inhibiting neutrophil adhesion to P-selectin (result in words)	Compound
totally inactive	CC(C)[C@H](NC(=O)[C@H](Cc1c[nH]c2ccccc12)NC(=O)[C@@H](NC(=O)[C@H](Cc1c[nH]c2ccccc12)NC(=O)[C@@H]1CNC(=O)C[C@H](NC(=O)[C@H](CCCCN)NC(=O)[C@@H](N)CCCNC(=N)N)C(=O)NCC(=O)NCC(=O)N1)[C@@H](C)O)C(N)=O [SEQ ID NO:3, Arg-Lys-cyclo(Asp-Gly-Gly-Dap)-Trp-Thr-Trp-Val-NH2] (H-RKDGG[Dap]WTWV-NH2; lactam 3-6)

same assay, conditions: inhibiting the binding of human neutrophils to P-selectin

IC50 [µM]	Compound
18.3	CC(C)[C@@H](NC(=O)[C@@H](Cc1c[nH]c2ccccc12)NC(=O)[C@H](NC(=O)[C@@H](Cc1c[nH]c2ccccc12)NC(=O)[C@H]1CSSC[C@@H](NC(=O)[C@@H](CCCCN)NC(=O)[C@H](N)CCCNC(=N)N)C(=O)NCC(=O)N2Cc3ccccc3C[C@@H]2C(=O)N1)[C@H](C)O)C(N)=O [(59)] (H-[dR][dK][dC]G[dTic][dC][dW][dT][dW][dV]-NH2; disulfide 3-6)
69	CC[C@H](C)[C@@H]1NC(=O)[C@H](CCCCN)NC(=O)[C@@H](N)CCCCNC(=O)CC[C@@H](C(=O)N[C@@H](Cc2c[nH]c3ccccc23)C(=O)N[C@H](C(=O)N[C@@H](Cc2c[nH]c3ccccc23)C(=O)N[C@H](C(N)=O)C(C)C)[C@@H](C)O)NC(=O)CNC(=O)CNC1=O [(2)] (H-KKIGGEWTWV-NH2; lactam 1-6)
10.6	CC(C)[C@@H](NC(=O)[C@@H](Cc1c[nH]c2ccccc12)NC(=O)[C@H](NC(=O)[C@@H](Cc1c[nH]c2ccccc12)NC(=O)[C@H]1CSC[C@@H](NC(=O)[C@@H](CCCCN)NC(=O)[C@H](N)CCCNC(=N)N)C(=O)NCC(=O)N[C@@H](Cc2ccccc2)C(=O)N1)[C@H](C)O)C(N)=O [(81)]
191	CC(=O)N[C@H](CCCCN)C(=O)N[C@@H]1CSSC[C@H](C(=O)N[C@H](Cc2c[nH]c3ccccc23)C(=O)N[C@@H](C(=O)N[C@H](Cc2c[nH]c3ccccc23)C(=O)N[C@@H](C(N)=O)C(C)C)[C@H](C)O)NC(=O)[C@H](Cc2ccc(O)cc2)NC(=O)CNC1=O [(104)] (Ac-[dK][dC]GY[dC][dW][dT][dW][dV]-NH2; disulfide 2-5)
13	CC(C)[C@H](NC(=O)[C@H](Cc1c[nH]c2ccccc12)NC(=O)[C@@H](NC(=O)[C@H](Cc1c[nH]c2ccccc12)NC(=O)[C@@H]1CC(=O)NC[C@H](NC(=O)[C@H](CCCCN)NC(=O)[C@@H](N)CCCNC(=N)N)C(=O)NCC(=O)NCC(=O)N1)[C@@H](C)O)C(N)=O [(22)] (H-RK[Dap]GGDWTWV-NH2; lactam 3-6)
2270	CC(C)[C@@H](NC(=O)[C@H]1CCCN1C(=O)[C@H](NC(=O)[C@@H](Cc1c[nH]c2ccccc12)NC(=O)[C@H]1CSSC[C@@H](NC(=O)[C@@H](CCCCN)NC(=O)[C@H](N)CCCNC(=N)N)C(=O)NCC(=O)N[C@@H](Cc2ccccc2)C(=O)N1)[C@H](C)O)C(N)=O [(77)] (H-[dR][dK][dC]GF[dC][dW][dT][dP][dV]-NH2; disulfide 3-6)
26.8	CC[C@H](C)[C@@H]1NC(=O)[C@H](NC(=O)[C@@H](CCCCN)NC(=O)[C@H](N)CCCNC(=N)N)CSSC[C@H](C(=O)N[C@H](Cc2c[nH]c3ccccc23)C(=O)N[C@@H](C(=O)N[C@H](Cc2c[nH]c3ccccc23)C(=O)N[C@@H](C(N)=O)C(C)C)[C@H](C)O)NC(=O)[C@@H]2CCCN2C1=O [(95)] (H-[dR][dK][dC]IP[dC][dW][dT][dW][dV]-NH2; disulfide 3-6)
33.9	CC[C@@H](C)[C@@H](NC(=O)CNC(=O)[C@H]1CSSC[C@@H](N)C(=O)N[C@H](CCCCN)C(=O)N[C@H]([C@H](C)CC)C(=O)N1)C(=O)N[C@H](Cc1c[nH]c2ccccc12)C(=O)N[C@@H](C(=O)N[C@H](Cc1c[nH]c2ccccc12)C(=O)N[C@@H](C(N)=O)C(C)C)[C@H](C)O [(109)] (H-[dC][dK][dI][dC]G[dI][dW][dT][dW][dV]-NH2; disulfide 1-4)
